# PMC9959130, “Effects of Side Chain and Peptide Bond Modifications on the Targeting Properties of Stabilized Minigastrin Analogs” (Pharmaceuticals, 2023)
# Like-named read-outs stand apart in the source and are kept apart here. Where a SMILES comes first, the peptide text is derived from it. [ ]: non-standard residue; d: D form. The star is where a group is joined. DOTA = O=C(O)CN1CCN(CC(=O)O)CCN(CC(=O)*)CCN(CC(=O)O)CC1; 1Nal = N[C@@H](Cc1cccc2ccccc12)C(=O)O; NMeNle = CCCC[C@H](NC)C(=O)O
# How the values were obtained:
# [1] = In vitro stability in human serum (intact radiopeptide by radio-HPLC); assay type: in vitro ADME; details: fresh human serum, 37 °C, n = 2; for Intact Radiopeptide in Human Serum (%): 1000 pmol/mL
# Description: In vitro stability studies were performed in human serum (n = 2). The radiolabeled peptides (1000 pmol/mL) were incubated at 37 °C and a sample of 100 μL was taken at 1, 4, and 24 h after incubation. After the precipitation of proteins with ACN at 1:1.5 (v/v), centrifugation (14,000 rpm, 2 min, centrifuge 5424, Eppendorf AG, Germany) and dilution with water at 1:1 (v/v), an aliquot of 100 μL of this solution was analyzed by HPLC. Radioligand breakdown was monitored and the percentage of intact radiopeptide was calculated using Chromeleon Dionex Software (Version 7.2.9.11323). Additionally, the radiolabeled peptides (1000 pmol/mL) were incubated in PBS (n = 1) at room temperature to confirm the complex stability as a control.
# [2] = Binding to serum proteins (incubation in human serum, Sephadex G-50 size exclusion chromatography); assay type: in vitro ADME; details: 37 °C; for Binding to Serum Proteins (%): 500 pmol/mL
# Description: Protein binding was determined by incubation of the radiolabeled peptides in human serum at 37 °C (500 pmol/mL, n = 2). For the time points of 1, 4, and 24 h after incubation, samples of 25 µL were subjected to Sephadex G-50 size exclusion chromatography (GE Healthcare Illustra, Little Chalfont, UK). The column and the eluate were measured using the γ-counter and the percentage of protein binding was calculated.
# [3] = Distribution coefficient (LogD) in octanol/PBS; assay type: physicochemical; details: radiolabeled peptide (111In-labeled where the label names no radiometal), shake-flask octanol/PBS, 100 pmol/mL, 15 min shaking at 1500 rpm, γ-counter, mean ± SD, n = 8
# Description: The distribution coefficient (LogD) in octanol/PBS was determined by mixing 0.5 mL of the radiolabeled DOTA peptides diluted in PBS (100 pmol/mL) and 0.5 mL octanol in a 1.5 mL microcentrifuge tube (n = 8). After shaking for 15 min (MS3 Basic, IKA, Staufen, Germany) at 1500 rpm and a waiting time of 10 min to ensure appropriate separation of the two phases, 100 µL aliquots of each phase were pipetted into 4.5 mL tubes. The tubes were measured using a γ-counter (2480 Wizard2 3″, PerkinElmer Life Sciences and Analytical Instruments, formerly Wallac Oy, Turku, Finland) and the LogD value was determined using following equation: LogD=Log(cpmoctanol phase/cpmPBS phase)
# [4] = radiolabeled peptide (111In where no radiometal named), 24 h after incubation
# [5] = radiolabeled peptide (111In where no radiometal named), 24 h after incubation, Sephadex G-50, γ-counter, n = 2
SMILES,"Intact Radiopeptide in Human Serum (%) [1, 4]","Binding to Serum Proteins (%) [2, 5]",LogD [3],"remaining at 1 h, 1000 pmol/mL ([1]; human, radiolabeled peptide, 1 h after incubation)","remaining at 4 h, 1000 pmol/mL ([1]; human, radiolabeled peptide, 4 h after incubation)","remaining at 24 h, 1000 pmol/mL [1, 4]","fraction unbound at 1 h, 500 pmol/mL ([2]; human, radiolabeled peptide, 1 h after incubation, Sephadex G-50, n = 2)","fraction unbound at 4 h, 500 pmol/mL ([2]; human, radiolabeled peptide, 4 h after incubation, Sephadex G-50, n = 2)","fraction unbound at 24 h, 500 pmol/mL [2, 5]",LogD ([3]; read-out: LogD)
CCCC[C@@H](C(=O)N[C@@H](CC(=O)O)C(=O)N[C@@H](Cc1cccc2ccccc12)C(N)=O)N(C)C(=O)[C@H](Cc1c[nH]c2ccccc12)NC(=O)CNC(=O)[C@H](Cc1ccc(O)cc1)NC(=O)[C@H](C)NC(=O)[C@@H](CCCCN)NC(=O)CN1CCN(CC(=O)O)CCN(CC(=O)O)CCN(CC(=O)O)CC1 [DOTA-[DLys^1]MGS5] ({DOTA}-[dK]AYGW[NMeNle]D[1Nal]-NH2),98.1 ± 1.1%,27.8 ± 0.4%,−1.3 ± 0.1,,,,,,,
CCCC[C@@H](C(=O)N[C@@H](CC(=O)O)C(=O)N[C@@H](Cc1ccccc1)C(N)=O)N(C)C(=O)[C@H](Cc1c[nH]c2ccccc12)NC(=O)CNC(=O)[C@H](Cc1ccc(O)cc1)NC(=O)[C@H](C)NC(=O)[C@@H](CCC(=O)O)NC(=O)CN1CCN(CC(=O)O)CCN(CC(=O)O)CCN(CC(=O)O)CC1 [DOTA-[Phe^8]MGS5] ({DOTA}-[dE]AYGW[NMeNle]DF-NH2),54.0 ± 0.8%,20.2 ± 1.6%,−3.2 ± 0.1,,,,,,,
"CCCC[C@@H](C(=O)N[C@@H](CC(=O)O)C(=O)N[C@@H](Cc1ccccc1)C(N)=O)N(C)C(=O)[C@H](Cc1c[nH]c2ccccc12)NC(=O)CNC(=O)[C@H](Cc1ccc(O)cc1)NC(=O)[C@H](C)NC(=O)[C@@H](CCC(=O)O)NC(=O)CN1CCN(CC(=O)O)CCN(CC(=O)O)CCN(CC(=O)O)CC1 [[^111In]In-DOTA-[Phe^8]MGS5, metal not drawn] ({DOTA}-[dE]AYGW[NMeNle]DF-NH2)",,,,99.5 ± 0.7%,92.5 ± 0.7%,54 ± 0.8%,0.919,0.882,0.798,-3.19 ± 0.06
